Like-named read-outs stand apart in the source and are kept apart here.
Columns and labels:
[1] = test system: P. falciparum blood-stage malaria parasites; settings: monotherapy, cited from earlier work
[2] = Noncompartmental pharmacokinetic analysis of plasma concentrations after single oral dose of artefenomel and DSM265 in combination; assay type: in vivo, human; settings: for Cmax / AUC(0-t) / AUC(0-inf) / Vd/F / Tmax / half-life: human, plasma
Protocol: Plasma samples were analyzed by liquid chromatography-tandem mass spectrometry (HPLC-MS/MS) as previously described ([2], [4]). The PK parameters determined using noncompartmental analysis were the maximum plasma concentration (Cmax), the time point when Cmax was reached (tmax), the area under the concentration-time curve up to last time point measure (AUC0–last), the area under the concentration-time curve extrapolated to infinity (AUC0–∞), the elimination half-life (t1/2), the apparent clearance (CL/F), and the apparent volume of distribution associated with the terminal elimination phase, where F is bioavailability (Vz/F). The PD variables of interest in this study were the parasite reduction ratio (PRR) and parasite clearance half-life. These provide an estimate of the efficacy of an antimalarial treatment; with the former being the ratio of the parasite density decrease over a 48-h period (expressed as the log10 transformed cohort-specific PRR48 [log10 PRR48]). Noncompartmental PK analysis was performed using PKanalix (version 2019R1, Lixoft SAS, Abtony, France). The area under the concentration-time curve was determined using the linear log trapezoidal method in which linear calculation was used before maximum concentration (Cmax) and logarithmic formula for after Cmax. The slope of the terminal elimination phase (λz) was estimated via a linear regression between log concentrations and time. All parameters were summarized using geometric mean or median and range.

[3] = oral, cohort 1 (n = 8), 200 mg artefenomel plus 100 mg DSM265, plasma, read-out: Cmax, range
[4] = oral, cohort 1 (n = 8), 200 mg artefenomel plus 100 mg DSM265, read-out: AUC0–last, geometric mean
[5] = oral, cohort 1 (n = 8), 200 mg artefenomel plus 100 mg DSM265, read-out: AUC0–last, range
[6] = oral, cohort 1 (n = 8), 200 mg artefenomel plus 100 mg DSM265, read-out: AUC0–∞, geometric mean
[7] = oral, cohort 1 (n = 8), 200 mg artefenomel plus 100 mg DSM265, read-out: AUC0–∞, range
[8] = oral, cohort 1 (n = 8), 200 mg artefenomel plus 100 mg DSM265, read-out: Vz/F (apparent volume of distribution, terminal phase), geometric mean
[9] = oral, cohort 1 (n = 8), 200 mg artefenomel plus 100 mg DSM265, read-out: Vz/F, range
[10] = oral, cohort 1 (n = 8), 200 mg artefenomel plus 100 mg DSM265, read-out: tmax, median
[11] = oral, cohort 1 (n = 8), 200 mg artefenomel plus 100 mg DSM265, read-out: tmax, range
[12] = oral, cohort 2 (n = 5), 200 mg artefenomel plus 50 mg DSM265, plasma, read-out: Cmax, range
[13] = oral, cohort 2 (n = 5), 200 mg artefenomel plus 50 mg DSM265, read-out: AUC0–last, geometric mean
[14] = oral, cohort 2 (n = 5), 200 mg artefenomel plus 50 mg DSM265, read-out: AUC0–last, range
[15] = oral, cohort 2 (n = 5), 200 mg artefenomel plus 50 mg DSM265, read-out: AUC0–∞, geometric mean
[16] = oral, cohort 2 (n = 5), 200 mg artefenomel plus 50 mg DSM265, read-out: AUC0–∞, range
[17] = oral, cohort 2 (n = 5), 200 mg artefenomel plus 50 mg DSM265, read-out: Vz/F (apparent volume of distribution, terminal phase), geometric mean
[18] = oral, cohort 2 (n = 5), 200 mg artefenomel plus 50 mg DSM265, read-out: Vz/F, range
[19] = oral, cohort 2 (n = 5), 200 mg artefenomel plus 50 mg DSM265, read-out: tmax, median
[20] = oral, cohort 2 (n = 5), 200 mg artefenomel plus 50 mg DSM265, read-out: tmax, range
[21] = po, cohort 1 (n = 8), single oral dose 200 mg artefenomel plus 100 mg DSM265, plasma, read-out: Cmax, geometric mean
[22] = po, cohort 2 (n = 5), single oral dose 200 mg artefenomel plus 50 mg DSM265, plasma, read-out: Cmax, geometric mean
[23] = cohort 1 (n = 8), 200 mg artefenomel plus 100 mg DSM265
[24] = cohort 2 (n = 5), 200 mg artefenomel plus 50 mg DSM265

SMILES	Cmax [2, 3] [ng/mL]	AUC(0-t) [2, 4] [µg·h/mL]	AUC(0-t) [2, 5] [µg·h/mL]	AUC(0-inf) [2, 6] [µg·h/mL]	AUC(0-inf) [2, 7] [µg·h/mL]	Vd/F [2, 8] [L]	Vd/F [2, 9] [L]	Tmax [2, 10] [h]	Tmax [2, 11] [h]	Cmax [2, 12] [ng/mL]	AUC(0-t) [2, 13] [µg·h/mL]	AUC(0-t) [2, 14] [µg·h/mL]	AUC(0-inf) [2, 15] [µg·h/mL]	AUC(0-inf) [2, 16] [µg·h/mL]	Vd/F [2, 17] [L]	Vd/F [2, 18] [L]	Tmax [2, 19] [h]	Tmax [2, 20] [h]	Cmax [2, 21] [ng/mL]	Cmax [2, 22] [ng/mL]	also measured
c1cc([C@H]2CC[C@]3(CC2)OO[C@]2(O3)C3CC4CC(C3)CC2C4)ccc1OCCN1CCOCC1 [Artefenomel]	150 to 597	3.01	1.11 to 4.96	3.08	1.11 to 5.09	8900	4810 to 16000	3	2 to 5	307 to 522	3.25	2.66 to 5.7	3.32	2.68 to 5.91	7990	4590 to 14300	5	1 to 6	372	412	recrudescence ([1]; single dose 200 mg): recrudescence occurred in all subjects; recrudescence, subjects ([1]; single dose 500 mg): 50%
Cc1cc(Nc2ccc(S(F)(F)(F)(F)F)cc2)n2nc(C(C)(F)F)nc2n1 [DSM265]	4150 to 6880	434	329 to 502	514	360 to 634	28	22 to 42	2	1 to 3	2150 to 4340	232	209 to 281	271	240 to 309	26	19 to 34	2	1 to 2	5440	3580	parasite clearance half-life ([1]; single dose 150 mg): 9.4 h; recrudescence ([1]; single dose 150 mg): recrudescence occurred in all subjects; parasite clearance half-life ([1]; single dose 400 mg): 5.2 h; recrudescence ([1]; single dose 400 mg): no recrudescence occurred; CL/F (apparent clearance), geometric mean [2, 23]: 0.19 L/h; CL/F, range [2, 23]: 0.16 to 0.28 L/h; CL/F (apparent clearance), geometric mean [2, 24]: 0.18 L/h; CL/F, range [2, 24]: 0.16 to 0.21 L/h; half-life ([2]; oral, cohort 1 (n = 8), 200 mg artefenomel plus 100 mg DSM265, read-out: t1/2 (elimination half-life), geometric mean (converted)): 4.17 days; half-life ([2]; oral, cohort 1 (n = 8), 200 mg artefenomel plus 100 mg DSM265, read-out: t1/2, range): 3.17 to 7.71 days; half-life ([2]; oral, cohort 2 (n = 5), 200 mg artefenomel plus 50 mg DSM265, read-out: t1/2 (elimination half-life), geometric mean (converted)): 4.04 days; half-life ([2]; oral, cohort 2 (n = 5), 200 mg artefenomel plus 50 mg DSM265, read-out: t1/2, range): 3.12 to 5.58 days

From PMC7187626 (Antimicrobial Agents and Chemotherapy, 2019)
